Data reported in PubChem BioAssay AID1996.
Values after ≈ are worked out from the molar mass of the structure shown.

Details: buffer; pH 7.4; 200.0 µM

| Compound | solubility kinetic |
| --- | --- |
| Cc1csc(NC(=S)NC(=O)c2ccccc2)n1 | 1 µg/mL (≈ 3.61 µM) |
| O=c1c2ccccc2ncn1CCCCOc1ccccc1F | 37.3 µg/mL (≈ 119 µM) |
| Cc1ccc(C)c(OCC(=O)Nc2ccncc2)c1 | 37 µg/mL (≈ 144 µM) |
| COc1ccc(Cl)c(OC)c1C(=O)NC(=O)Nc1nc(C)nc(C)n1 | 51.4 µg/mL (≈ 141 µM) |
| O=C(COc1ccccc1F)N1CCCc2ccccc21 | > 42.8 µg/mL |
| COc1ccc(C(=O)NCC(c2ccco2)N2CCOCC2)cc1OC (stereo unspecified) | > 54.1 µg/mL |
| Cc1ccc2cc([N+](=O)[O-])ccc2n1 | 20.5 µg/mL (≈ 109 µM) |
| COc1ccc(Cl)cc1C(=O)Nc1ccc2c(c1)OCCO2 | 0.9 µg/mL (≈ 2.81 µM) |
| COC(=O)c1cn(C(=O)c2cc(Cl)ccc2Cl)c2ccccc12 | < 0.7 µg/mL |
| Cc1ccccc1-c1nc(S(=O)(=O)c2ccccc2)c(N2CCCC2)o1 | 10.1 µg/mL (≈ 27.4 µM) |
| COC(=O)CNC(=O)c1ccc(F)cc1 | 27.1 µg/mL (≈ 128 µM) |
| Cc1ccc(Nc2c(-c3ccccc3O)nc3ncccn23)cc1 | 0.7 µg/mL (≈ 2.21 µM) |
| CCCCc1nnc(NC(=O)COC)s1 | > 34.4 µg/mL |
| COc1cccc(CNCc2ccco2)c1O.O=C(O)C(=O)O | > 48.5 µg/mL |
| C=CCn1c(C)c(C(=O)OCC)c2cc(O)c3ccccc3c21 | < 0.7 µg/mL |
| COC(=O)c1cc(C(=O)OC)n(Cc2ccc(F)cc2)c1C | 10.6 µg/mL (≈ 34.7 µM) |
| Cc1ccccc1C(=O)Nc1ccccc1C(=O)NC1CC1 | > 44.2 µg/mL |
| Cc1nc2ccc(NC(=O)[C@H](C)N3C(=O)C4CC=CCC4C3=O)cc2s1 (stereo partly specified) | > 55.4 µg/mL |
| Cc1ccc(C(=O)c2cc(Br)ccc2N)cc1 | 2.9 µg/mL (≈ 9.99 µM) |
| O=C1CC(C(=O)N2CCCc3ccccc32)CN1c1ccc(F)cc1 (stereo unspecified) | 46.5 µg/mL (≈ 137 µM) |
| COc1cccc(NC(=S)N2CCN(S(C)(=O)=O)CC2)c1 | > 49.4 µg/mL |
| COc1ccccc1-n1cnnc1SCC(=O)N1CCOCC1 | > 50.2 µg/mL |
| Cc1ccc(N(CC(=O)NC2CC2)S(=O)(=O)c2ccccc2)c(C)c1 | > 53.8 µg/mL |
| CC1SC(c2ccc(F)cc2)N(CCc2ccccc2)C1=O (stereo unspecified) | 21.8 µg/mL (≈ 69.1 µM) |
| CN(Cc1ccccc1)S(=O)(=O)c1ccc(Cl)c(C(=O)OCC(=O)NC2CCS(=O)(=O)C2)c1 (stereo unspecified) | 18 µg/mL (≈ 35 µM) |

Continued, values first:

| solubility kinetic | Compound |
| --- | --- |
| > 35.7 µg/mL | COC(=O)C[n+]1cccc2ccccc21.[Cl-] |
| 5.4 µg/mL (≈ 14.1 µM) | COc1ccc(CCNC(=O)COC(=O)c2cnc(Cl)c(Cl)c2)cc1 |
| 1.4 µg/mL (≈ 4.92 µM) | Cc1ccc(C(=O)NC(=S)Nc2ccccc2C)cc1 |
| > 49.7 µg/mL | CSc1ccc(C2CC(=O)Nc3c2c(=O)n(C)c(=O)n3C)cc1 (stereo unspecified) |
| 9.7 µg/mL (≈ 24.7 µM) | CC(=O)Nc1ccc(NC(=O)COC(=O)COc2ccc3ccccc3c2)cc1 |
| 6.7 µg/mL (≈ 24.1 µM) | CCOc1ncccc1C(=O)Nc1ccc(F)c(F)c1 |
| 0.9 µg/mL (≈ 2.44 µM) | COc1ccc(N2C(=O)C3C(C2=O)C3(c2ccccc2)c2ccccc2)cc1 (stereo unspecified) |
| > 45.7 µg/mL | COc1cc(NC(=O)c2cccnc2SC)cc(OC)c1 |
| > 60 µg/mL | CC(NC(=O)C1=CC=CN2CCS(=O)(=O)N=C12)c1ccc(Cl)c(Cl)c1 (stereo unspecified) |
| > 67.9 µg/mL | O=C(COC(=O)c1cc(S(=O)(=O)N2CCOCC2)ccc1Cl)NCc1ccccc1 |
| 7.5 µg/mL (≈ 24.2 µM) | CCC1CN(C(=O)Nc2cccc(C)c2)c2cc(C)ccc2O1 (stereo unspecified) |
| > 54.2 µg/mL | Cc1nn(CC(=O)N2CCN(C(=O)c3ccco3)CC2)c(C)c1[N+](=O)[O-] |
| > 46.3 µg/mL | CN1CCN(C(=S)NC(=O)c2cccc([N+](=O)[O-])c2)CC1 |
| > 43 µg/mL | COC(=O)CNC(=O)COC(=O)c1ccc(Cl)nc1 |
| 0.8 µg/mL (≈ 2.52 µM) | O=C(Nc1ccc(NC(=O)c2cccnc2)cc1)c1ccccc1 |
| > 40.4 µg/mL | Cc1cccnc1NC(=O)CNC(=O)c1ccccc1 |
| 7.6 µg/mL (≈ 29.7 µM) | O=C(Nc1cc(Cl)ccc1Cl)c1ccco1 |
| > 62 µg/mL | COc1ccc(S(=O)(=O)N2CCN(CC(=O)N3CCOCC3)CC2)cc1OC |
| > 45.4 µg/mL | CCN1CCN(c2nc(-c3ccc(F)cc3)cc(=O)[nH]2)CC1 |
| 16.8 µg/mL (≈ 52.8 µM) | O=C(Nc1ccccc1-c1ccccc1)c1ccccc1[N+](=O)[O-] |
| > 47.8 µg/mL | CS(=O)(=O)N1CCCC(C(=O)Nc2ccc(F)c(F)c2)C1 (stereo unspecified) |
